Experimental data reported in PubChem BioAssay (NCI).
Values joined by “and” are separate entries in the source; they are usually repeats but may differ in a detail not shown here. Identical values can stand only once.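 These data come from cells grown in 96-well plates and exposed to compound for 48 hours at five concentrations. At the GI50, growth is halved. TGI: concentration producing complete growth inhibition.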

Tested on: MDA-MB-435
Experiment: inhibition of tumour cell growth, NCI panel, 48 h

With CC(C)(/C=C(\C#N)C(=O)N1CCC[C@@H](n2nc(-c3ccc(Oc4ccccc4)cc3F)c3c(N)ncnc32)C1)N1CCN(C2COC2)CC1 as the molecule, how does the GI50 read?
The GI50 was 4.81 µM.

What about the TGI of the same molecule?
Its TGI is 17.3 µM.

Which GI50 does the source give for O=c1oc2ccc(-c3ccc(F)cc3F)cc2c(=O)n1-c1cccc(C(F)(F)F)c1 here?
Its GI50 is 1.44 µM.

What about the TGI of the same molecule?
Its TGI is 8.04 µM.

How did the GI50 turn out when COC(=O)c1ccc2c(c1)C(=O)c1c-2n(CCCN=[N+]=[N-])c(=O)c2cc(OC)c(OC)cc12 was run?
The GI50 was over 100 µM.

What about the TGI of the same molecule?
Its TGI is over 100 µM.

How did the GI50 turn out when O=C(Cc1ccc(F)c(Cl)c1)Nc1cc(C2(C(F)(F)F)CC2)nn1CC1CCCCC1 was run?
The GI50 was 3.85 µM.

What about the TGI of the same molecule?
The TGI was 11.7 µM.

Which GI50 does the source give for NC1CCN(Cc2ccccc2)CC1 here?
The GI50 was over 100 µM.

What about the TGI of the same molecule?
Its TGI is over 100 µM.

Which GI50 does the source give for N#Cc1nn(-c2cc(=O)[nH]c3ccc(Cl)cc23)c(N)c1C#N here?
Its GI50 is over 100 µM.

What about the TGI of the same molecule?
The TGI was over 100 µM.

How did the TGI turn out when NNC(=O)CNc1cccc(Br)c1 was run?
Its TGI is over 100 µM.

How did the TGI turn out when NC(N)=NCCCC(=O)O was run?
Its TGI is over 100 µM.

Which GI50 does the source give for CCN1CCN(c2cc(C)c3cc(NC(=O)c4ccc(OC)c(OC)c4)ccc3n2)CC1 here?
Its GI50 is 0.448 µM.

What about the TGI of the same molecule?
The TGI was 5.56 µM.

How did the GI50 turn out when COC(=O)c1c2c(c(C)[n+]([O-])c1C)C(=O)C=C(NCc1ccc(F)cc1)C2=O was run?
Its GI50 is 0.173 µM.

What about the TGI of the same molecule?
Its TGI is 0.339 µM.

How did the GI50 turn out when CCCC(=O)Nc1cn(COC)c(C(=O)N2C[C@@H]3C[C@]34C2=CC(=O)c2[nH]cc(C)c24)n1 was run?
Its GI50 is 11.1 µM.

What about the TGI of the same molecule?
The TGI was 27.4 µM and 27.1 µM.

How did the GI50 turn out when CC(=O)Nc1ccc(-c2csc(Nc3cccc(-c4csc(C)n4)c3)n2)cc1 was run?
The GI50 was 0.23 µM.

Which GI50 does the source give for CNCCOC(=O)/C=C1\CC[C@H]2[C@@H]([C@@H](O)C(=O)[C@@H]3[C@]2(C)CC[C@H](O)[C@]3(C)C(=O)OC)[C@H]1C here?
The GI50 was 0.368 µM.

And the TGI?
Its TGI is 1.45 µM.

For Cc1nnc(Nc2ccc(NC(=O)Nc3ccc(Cl)cc3)cc2)c2ccccc12, which GI50 is on record?
Its GI50 is 1.73 µM.

What about the TGI of the same molecule?
Its TGI is 3.43 µM.

What does the source list for CC(=O)ON1CCCC(P(=O)(OCCSC(=O)C(C)(C)C)OCCSC(=O)C(C)(C)C)C1=O (centres undefined)?
GI50: 3.02 µM; TGI: 88.6 µM

C=CCC1(c2ccc(OC)cc2)C=CC(=O)CC1 (centres undefined) was tested. Which TGI did it give?
Its TGI is over 100 µM.

Which results are given for COC(=O)[C@]12CC[C@@H](C)[C@H](C)[C@@H]1C1=CC[C@@H]3[C@@]4(C)C[C@@H](O)[C@H](O)[C@@](C)(CO)C4=CC[C@@]3(C)[C@]1(C)CC2?
GI50: 15.4 µM; TGI: 30.3 µM

COc1ccc(C(=O)Nc2ccc(O)c(=O)cc2)cc1 was tested. Which TGI did it give?
The TGI was over 100 µM.

With Cc1nc(N)sc1N=Nc1ccccc1Br as the molecule, how does the TGI read?
Its TGI is 47.9 µM.

Which GI50 does the source give for S=c1[nH]c(=S)c2cc3ccccc3nc2[nH]1 here?
Its GI50 is 31.1 µM.

And the TGI?
Its TGI is over 100 µM.

Tested on: SF-539 CNS
Experiment: inhibition of tumour cell growth, NCI panel, 48 h

With CC1(C)OC2C(CO[Si](C)(C)C(C)(C)C)OC(n3c(I)c(C#C[Si](C)(C)C)c(=O)[nH]c3=O)C2O1 (centres undefined) as the molecule, how does the GI50 read?
Its GI50 is 15.4 µM.

What about the TGI of the same molecule?
Its TGI is 28.9 µM.

Which results are given for CN(C)CC[C@H](CSc1ccccc1)Nc1ccc(S(=O)(=O)NC(=O)c2ccc(N3CCN(Cc4ccccc4-c4ccc(Cl)cc4)CC3)cc2)cc1[N+](=O)[O-]?
GI50: 36.5 µM; TGI: > 100 µM

What does the source list for COc1ccc(-c2ccc(=O)oc2C#Cc2cc(OC)c(OC)c(OC)c2)cc1O?
GI50: 0.254 µM; TGI: 1.16 µM

With O=C(/C=C/c1ccc[nH]1)c1ccc(-n2ccc(C(F)(F)F)n2)cc1 as the molecule, how does the GI50 read?
Its GI50 is 2.53 µM.

What about the TGI of the same molecule?
The TGI was over 100 µM.

Which GI50 does the source give for O=C(c1ccco1)c1c(C(F)(F)F)nc2ccc(Cl)cc2[n+]1[O-] here?
Its GI50 is over 100 µM.

And the TGI?
The TGI was over 100 µM.

What does the source list for COc1ccc(-c2nnc3n(C)c(=O)c4ccccc4n23)cc1N?
GI50: 1.63 µM; TGI: 8.82 µM

What does the source list for Clc1cc2c(c(CSc3nc4ccccc4n4cccc34)c1)OCOC2?
GI50: 22.9 µM; TGI: > 100 µM

How did the GI50 turn out when CN1CCN(c2ccc(Nc3cc(-c4cccc(-n5ccc6cc(C7CC7)cc(F)c6c5=O)c4CO)cn(C)c3=O)nc2)CC1 was run?
The GI50 was 1.82 µM.

What about the TGI of the same molecule?
Its TGI is 3.63 µM.

Which results are given for COc1ccc2nc3ccccc3c(NCc3ccc(F)cc3)c2c1?
GI50: 1.76 µM; TGI: 6.54 µM

CN(C)C1CCN(C(=O)c2ccc(NC(=O)Nc3ccc(-c4nc(N5CCOCC5)c5cccn5n4)cc3)cc2)CC1 was tested. Which GI50 did it give?
The GI50 was 0.0453 µM.

What about the TGI of the same molecule?
The TGI was 0.406 µM.

With COc1cnc2c(c1)C(=O)c1c-2n(CCCNC2=NCCS2)c(=O)c2cc([N+](=O)[O-])ccc12 as the molecule, how does the GI50 read?
Its GI50 is 0.0359 µM.

And the TGI?
Its TGI is 1.05 µM.

How did the GI50 turn out when COc1cc(N=Nc2ccc(O)c3ncccc23)c2ncccc2c1 was run?
Its GI50 is 2.95 µM.

And the TGI?
Its TGI is 14 µM.

Which results are given for CCn1c(O)c(/C=N/NC(=O)C(C)c2ccc(CC(C)C)cc2)sc1=S (centres undefined)?
GI50: 0.214 µM; TGI: 0.609 µM

How did the GI50 turn out when C[C@@H]1C[C@@H]([C@@H](CC2CC(=O)NC(=O)C2)OC(=O)CC(=O)c2ccccc2)C(=O)[C@@H](C)C1 was run?
Its GI50 is 0.521 µM.

And the TGI?
Its TGI is 16.6 µM.

Which GI50 does the source give for Cc1nc(Nc2cccnc2)sc1C(=O)/C=C/c1ccc(F)cc1 here?
The GI50 was 2.46 µM.

What about the TGI of the same molecule?
Its TGI is 7.26 µM.

Which results are given for N=c1c2c(-c3ccccc3)c(-c3ccccc3)n(Cc3ccccc3)c2ncn1C1CCC(O)CC1 (centres undefined)?
GI50: 0.639 µM; TGI: 2.24 µM

Which results are given for O=c1c(F)cn(Cc2ccc(C34CC5CC(CC(C5)C3)C4)c(O)c2)c(=O)n1Cc1ccc(C23CC4CC(CC(C4)C2)C3)c(O)c1?
GI50: 11.5 µM; TGI: 24.4 µM

Which GI50 does the source give for CCOC(=O)Nc1cc2c(c(N)n1)N=C(c1ccccc1)CO2 here?
Its GI50 is 0.195 µM.

And the TGI?
The TGI was 0.789 µM.

How did the TGI turn out when CC1CC2CCCC(O)=C2C(=O)O1 (centres undefined) was run?
Its TGI is over 100 µM.

Which GI50 does the source give for CC(C)(/C=C(\C#N)C(=O)N1CCC[C@@H](n2nc(-c3ccc(Oc4ccccc4)cc3F)c3c(N)ncnc32)C1)N1CCN(C2COC2)CC1 here?
The GI50 was 5.95 µM.

What about the TGI of the same molecule?
The TGI was 19 µM.

For O=c1oc2ccc(-c3ccc(F)cc3F)cc2c(=O)n1-c1cccc(C(F)(F)F)c1, which GI50 is on record?
Its GI50 is 1.41 µM.

And the TGI?
Its TGI is 6.95 µM.

How did the GI50 turn out when COC(=O)c1ccc2c(c1)C(=O)c1c-2n(CCCN=[N+]=[N-])c(=O)c2cc(OC)c(OC)cc12 was run?
The GI50 was over 100 µM.

And the TGI?
Its TGI is over 100 µM.

For O=C(Cc1ccc(F)c(Cl)c1)Nc1cc(C2(C(F)(F)F)CC2)nn1CC1CCCCC1, which GI50 is on record?
Its GI50 is 4.86 µM.

What about the TGI of the same molecule?
The TGI was over 15 µM.

With NC1CCN(Cc2ccccc2)CC1 as the molecule, how does the GI50 read?
Its GI50 is 2.27 µM.

What about the TGI of the same molecule?
Its TGI is 6.21 µM.

For N#Cc1nn(-c2cc(=O)[nH]c3ccc(Cl)cc23)c(N)c1C#N, which GI50 is on record?
Its GI50 is over 100 µM.

And the TGI?
Its TGI is over 100 µM.

For NNC(=O)CNc1cccc(Br)c1, which TGI is on record?
Its TGI is over 100 µM.

Which TGI does the source give for NC(N)=NCCCC(=O)O here?
The TGI was over 100 µM.

CCN1CCN(c2cc(C)c3cc(NC(=O)c4ccc(OC)c(OC)c4)ccc3n2)CC1 was tested. Which GI50 did it give?
The GI50 was 5.44 µM.

And the TGI?
The TGI was over 44.8 µM.

Which GI50 does the source give for COC(=O)c1c2c(c(C)[n+]([O-])c1C)C(=O)C=C(NCc1ccc(F)cc1)C2=O here?
Its GI50 is 0.641 µM.

And the TGI?
Its TGI is 1.87 µM.

With CCCC(=O)Nc1cn(COC)c(C(=O)N2C[C@@H]3C[C@]34C2=CC(=O)c2[nH]cc(C)c24)n1 as the molecule, how does the GI50 read?
Its GI50 is 4.27 µM.

And the TGI?
The TGI was 50 µM and 15.8 µM.

How did the GI50 turn out when CC(=O)Nc1ccc(-c2csc(Nc3cccc(-c4csc(C)n4)c3)n2)cc1 was run?
The GI50 was 1.1 µM.

What about the TGI of the same molecule?
Its TGI is 6.83 µM.

How did the GI50 turn out when CNCCOC(=O)/C=C1\CC[C@H]2[C@@H]([C@@H](O)C(=O)[C@@H]3[C@]2(C)CC[C@H](O)[C@]3(C)C(=O)OC)[C@H]1C was run?
Its GI50 is 0.267 µM.

What about the TGI of the same molecule?
Its TGI is 0.701 µM.

How did the GI50 turn out when Cc1nnc(Nc2ccc(NC(=O)Nc3ccc(Cl)cc3)cc2)c2ccccc12 was run?
Its GI50 is 1.61 µM.

And the TGI?
The TGI was 3.32 µM.

Which GI50 does the source give for CC(=O)ON1CCCC(P(=O)(OCCSC(=O)C(C)(C)C)OCCSC(=O)C(C)(C)C)C1=O (centres undefined) here?
The GI50 was 3.96 µM.

And the TGI?
The TGI was 27.4 µM.

C=CCC1(c2ccc(OC)cc2)C=CC(=O)CC1 (centres undefined) was tested. Which TGI did it give?
The TGI was over 100 µM.

How did the GI50 turn out when COC(=O)[C@]12CC[C@@H](C)[C@H](C)[C@@H]1C1=CC[C@@H]3[C@@]4(C)C[C@@H](O)[C@H](O)[C@@](C)(CO)C4=CC[C@@]3(C)[C@]1(C)CC2 was run?
Its GI50 is 17.7 µM.

What about the TGI of the same molecule?
The TGI was 34.6 µM.

Which TGI does the source give for COc1ccc(C(=O)Nc2ccc(O)c(=O)cc2)cc1 here?
Its TGI is 81.1 µM.

For Cc1nc(N)sc1N=Nc1ccccc1Br, which TGI is on record?
Its TGI is over 59.5 µM.
